As usually defined, the IC50 is the concentration needed to halve the response being measured. A lower IC50 goes with higher potency.

Molecules are shown by their SMILES. Where two headings read alike, the source gives them in different places.

Assay [1] has as its target T1, ScPFTase (protein farnesyltransferase), β-subunit (Saccharomyces cerevisiae, UniProt P22007).
T1 sequence (P22007 1-431): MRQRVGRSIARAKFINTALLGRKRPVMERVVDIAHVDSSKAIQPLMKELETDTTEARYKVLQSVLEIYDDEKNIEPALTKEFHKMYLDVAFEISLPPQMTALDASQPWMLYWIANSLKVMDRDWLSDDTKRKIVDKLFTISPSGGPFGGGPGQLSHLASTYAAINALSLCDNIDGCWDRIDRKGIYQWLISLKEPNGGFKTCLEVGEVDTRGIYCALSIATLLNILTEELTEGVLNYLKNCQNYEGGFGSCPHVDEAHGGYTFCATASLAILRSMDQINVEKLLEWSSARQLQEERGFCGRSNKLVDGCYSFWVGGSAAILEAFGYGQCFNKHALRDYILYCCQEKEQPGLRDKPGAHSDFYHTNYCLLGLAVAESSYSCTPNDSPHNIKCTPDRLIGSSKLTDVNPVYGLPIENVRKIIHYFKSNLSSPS
T1 sequence (P29703 1-316 partner): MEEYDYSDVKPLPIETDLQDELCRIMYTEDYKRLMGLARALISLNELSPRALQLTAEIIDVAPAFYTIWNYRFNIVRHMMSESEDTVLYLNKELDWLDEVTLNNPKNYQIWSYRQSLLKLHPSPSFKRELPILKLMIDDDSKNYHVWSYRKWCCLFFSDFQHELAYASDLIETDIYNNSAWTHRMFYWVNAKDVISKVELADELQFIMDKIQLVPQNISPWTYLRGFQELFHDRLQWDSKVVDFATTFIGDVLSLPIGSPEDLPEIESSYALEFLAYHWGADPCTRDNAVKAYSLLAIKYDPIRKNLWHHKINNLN
As to the kind of experiment: continuous fluorescence assay with N-dansyl-GCVIA. Format: biochemical.

Assay [2] concerns the target T1, ScPFTase (protein farnesyltransferase), β-subunit. As to the kind of experiment: continuous fluorescence assay with N-dansyl-GCVIA. In kind it is biochemical. The source holds these as a separate data set.

`C/C(=C\COP(=O)(O)OP(=O)(O)O)CCCC(C)COC(=O)C(=[N+]=[N-])C(F)(F)F` (racemic) [compound 4, (E)-8-O-(2-Diazo-3,3,3-trifluoropropanoyloxy)-3,7-dimethyl-2-octenyl-1-diphosphate] had an IC50 in assay [1] of 30 µM.

In the case of `C/C(=C\COP(=O)(O)OP(=O)(O)O)CC/C=C(\C)CNC(=O)C(=[N+]=[N-])C(F)(F)F` [compound 3, (E,E)-8-N-(2-Diazo-3,3,3-trifluoropropionamido)-3,7-dimethyl-2,6-octadienyl-1-diphosphate], half-maximal inhibition in assay [2] (IC50) required 50 µM.
